# Reference: ChEMBL document CHEMBL1201862, “PubChem BioAssay data set” (2004)
# Active and inactive are the calls of the source.
# Key:
# [1] = biological target: Exodeoxyribonuclease V (Escherichia coli (strain K12), UniProt P04993+P07648+P08394); test: RecBCD inhibition via phage-restricted bacterial growth – absorbance, V66 E. coli, mutant T4 phage, counter-screen for AddAB inhibitor project, dose response (AID 492957); assay type: functional, cell-based, Escherichia coli str. K-12 substr. MG1655
# [2] = biological target: T1, Caspase-3 (Homo sapiens, UniProt P42574); assay type: functional;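 also: Dose-response selectivity test against caspase-3 for candidate inhibitors of sentrin-specific proteases (SENPs)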
# T1 sequence (P42574 whole entry): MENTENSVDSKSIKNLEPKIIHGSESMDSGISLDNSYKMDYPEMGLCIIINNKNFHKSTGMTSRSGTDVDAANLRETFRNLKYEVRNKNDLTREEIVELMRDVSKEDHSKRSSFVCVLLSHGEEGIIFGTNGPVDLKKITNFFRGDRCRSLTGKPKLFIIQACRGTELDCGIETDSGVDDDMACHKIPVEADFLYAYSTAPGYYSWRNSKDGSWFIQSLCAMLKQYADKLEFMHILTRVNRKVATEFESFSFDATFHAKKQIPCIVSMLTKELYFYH
# [3] = biological target: T2, Sentrin-specific protease 7 (Homo sapiens, UniProt Q9BQF6); assay type: functional;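 also: Luminescence-based dose-response confirmation of ultra-high-throughput screening hits, measuring inhibition of SENP7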
# T2 sequence (Q9BQF6 whole entry): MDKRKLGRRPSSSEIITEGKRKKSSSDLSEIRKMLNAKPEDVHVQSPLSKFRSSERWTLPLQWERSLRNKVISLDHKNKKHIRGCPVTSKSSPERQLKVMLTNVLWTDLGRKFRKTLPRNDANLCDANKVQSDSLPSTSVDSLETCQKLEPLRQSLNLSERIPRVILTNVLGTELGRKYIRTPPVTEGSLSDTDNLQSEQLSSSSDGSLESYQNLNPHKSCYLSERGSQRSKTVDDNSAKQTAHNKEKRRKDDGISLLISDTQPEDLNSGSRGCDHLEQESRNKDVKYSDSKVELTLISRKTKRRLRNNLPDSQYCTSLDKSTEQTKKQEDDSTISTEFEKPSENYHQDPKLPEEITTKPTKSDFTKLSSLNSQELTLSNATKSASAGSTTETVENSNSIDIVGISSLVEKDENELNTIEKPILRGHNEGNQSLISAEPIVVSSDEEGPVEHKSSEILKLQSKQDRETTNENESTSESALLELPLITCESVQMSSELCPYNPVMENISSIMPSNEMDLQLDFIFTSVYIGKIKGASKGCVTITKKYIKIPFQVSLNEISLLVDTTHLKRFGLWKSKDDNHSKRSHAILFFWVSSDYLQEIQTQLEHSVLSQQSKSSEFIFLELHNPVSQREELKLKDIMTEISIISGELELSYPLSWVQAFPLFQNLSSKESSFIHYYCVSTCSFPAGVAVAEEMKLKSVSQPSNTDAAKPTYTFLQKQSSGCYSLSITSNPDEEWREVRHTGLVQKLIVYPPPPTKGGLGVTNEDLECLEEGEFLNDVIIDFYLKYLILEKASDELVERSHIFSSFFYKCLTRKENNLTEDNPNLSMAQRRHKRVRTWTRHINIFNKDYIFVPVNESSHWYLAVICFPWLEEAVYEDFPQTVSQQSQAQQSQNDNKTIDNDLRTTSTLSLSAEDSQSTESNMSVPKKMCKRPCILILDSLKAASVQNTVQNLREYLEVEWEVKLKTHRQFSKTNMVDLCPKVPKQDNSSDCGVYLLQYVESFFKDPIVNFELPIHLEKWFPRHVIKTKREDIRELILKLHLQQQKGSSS
# [4] = biological target: T3, Sentrin-specific protease 6 (Homo sapiens, UniProt Q9GZR1); assay type: functional;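 also: Luminescence-based dose-response confirmatory assay of SENP6 inhibition, following up an ultra-high-throughput screen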
# T3 sequence (Q9GZR1 whole entry): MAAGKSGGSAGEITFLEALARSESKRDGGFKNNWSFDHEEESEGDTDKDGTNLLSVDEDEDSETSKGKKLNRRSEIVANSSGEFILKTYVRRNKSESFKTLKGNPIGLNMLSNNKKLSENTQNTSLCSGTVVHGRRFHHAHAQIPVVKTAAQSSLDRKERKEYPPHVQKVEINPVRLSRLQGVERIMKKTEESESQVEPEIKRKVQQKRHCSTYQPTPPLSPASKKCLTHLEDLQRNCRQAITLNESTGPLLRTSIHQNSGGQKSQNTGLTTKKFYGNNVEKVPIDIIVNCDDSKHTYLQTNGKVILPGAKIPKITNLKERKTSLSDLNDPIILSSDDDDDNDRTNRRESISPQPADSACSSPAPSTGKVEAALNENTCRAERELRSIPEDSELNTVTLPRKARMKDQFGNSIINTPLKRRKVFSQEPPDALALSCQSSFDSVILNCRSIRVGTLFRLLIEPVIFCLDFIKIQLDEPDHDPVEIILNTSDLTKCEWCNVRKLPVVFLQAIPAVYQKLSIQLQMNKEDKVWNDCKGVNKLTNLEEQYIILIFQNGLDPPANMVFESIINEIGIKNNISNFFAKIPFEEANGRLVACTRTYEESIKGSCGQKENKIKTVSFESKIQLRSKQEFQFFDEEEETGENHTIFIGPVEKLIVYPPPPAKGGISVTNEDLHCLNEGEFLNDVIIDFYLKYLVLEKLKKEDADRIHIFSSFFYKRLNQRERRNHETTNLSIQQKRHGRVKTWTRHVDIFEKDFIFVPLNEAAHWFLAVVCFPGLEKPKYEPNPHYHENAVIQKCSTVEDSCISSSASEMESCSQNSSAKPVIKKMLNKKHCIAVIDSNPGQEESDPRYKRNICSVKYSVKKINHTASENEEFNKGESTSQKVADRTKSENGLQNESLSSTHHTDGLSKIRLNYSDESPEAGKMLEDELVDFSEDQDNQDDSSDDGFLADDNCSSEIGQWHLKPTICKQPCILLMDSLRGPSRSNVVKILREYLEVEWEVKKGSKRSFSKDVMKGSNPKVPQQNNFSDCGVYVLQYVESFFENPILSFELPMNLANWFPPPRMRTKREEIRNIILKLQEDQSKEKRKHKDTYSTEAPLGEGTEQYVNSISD
# [5] = biological target: T4, Sentrin-specific protease 8 (Homo sapiens, UniProt Q96LD8); assay type: functional;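 also: luminescence read-out of SENP8 inhibition, dose-response confirmation following an ultra-high-throughput screen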
# T4 sequence (Q96LD8 whole entry): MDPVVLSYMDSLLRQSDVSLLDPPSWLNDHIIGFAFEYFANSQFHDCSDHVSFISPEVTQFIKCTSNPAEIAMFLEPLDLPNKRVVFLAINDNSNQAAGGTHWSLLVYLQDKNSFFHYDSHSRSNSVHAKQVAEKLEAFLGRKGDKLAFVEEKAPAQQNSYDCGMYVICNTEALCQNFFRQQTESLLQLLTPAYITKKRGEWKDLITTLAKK
# [6] = Counterscreen for AddAB inhibitors: absorbance-based bacterial cell-based high throughput dose response assay for inhibitors of bacterial viability. [Related pubchem assays (depositor defined):AID435030, AID449728, AID449731, AID488942, AID488955, AID488956]; assay type: functional
# [7] = biological target: Mitochondrial peptide methionine sulfoxide reductase (Bos taurus, UniProt P54149); test: Absorbance-based biochemical high throughput dose response assay for activators of Methionine sulfoxide reductase A (MsrA).; assay type: functional
# [8] = CCR5-tropic HIV-1 fusion blockers – cell-based, CCR5-tropic Env, dose response (AID 2279); assay type: functional
# [9] = biological target: G-protein coupled receptor 55 (Homo sapiens, UniProt Q9Y2T6); test: blockers of GPR55 signalling, imaged – imaging, image-based, counter-screen for GPR35 antagonist project, SAR follow-up (AID 2397); assay type: functional
# [10] = biological target: T5, Probable nicotinate-nucleotide adenylyltransferase (Staphylococcus aureus (strain N315), UniProt P65502); assay type: functional, Staphylococcus aureus subsp. aureus N315;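 as to IC50 Mean: confirmatory dose-response retesting of NadD inhibitor hits first found in an ultra-high-throughput screen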
# [11] = biological target: T5, Probable nicotinate-nucleotide adenylyltransferase; assay type: functional, Staphylococcus aureus subsp. aureus N315; conditions: read-out: IC50_Mean
# [12] = cells; assay type: functional, cell-based
# [13] = cells; assay type: functional, cell-based; remark: listed apart in the source
# [14] = biological target: Lysine-specific demethylase 4C (Homo sapiens, UniProt Q9H3R0); test: inhibition of JMJD2C H3K9me3 demethylation – biochemical, DELFIA europium, cherry-picked samples, dose response (AID 488835); assay type: functional
# [15] = test system: HEK293; test: EBV LMP1 TES2 canonical NF-kB signalling blockers – cell-based, HEK293, luciferase, cherry-pick, dose response (AID 588343); assay type: functional; conditions: Homo sapiens
# [16] = test system: INS1; test: INS-1E survival protection against cytokine death – cell-based, luminescence, retest, dose response (AID 449756); assay type: functional; conditions: Rattus norvegicus;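 also: cell death triggered by IL-1 beta plus TNF-alpha plus IFN-gamma mixture; protective hits raise ATP signal compared with cytokine alone wells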
# T5 sequence (P65502 whole entry): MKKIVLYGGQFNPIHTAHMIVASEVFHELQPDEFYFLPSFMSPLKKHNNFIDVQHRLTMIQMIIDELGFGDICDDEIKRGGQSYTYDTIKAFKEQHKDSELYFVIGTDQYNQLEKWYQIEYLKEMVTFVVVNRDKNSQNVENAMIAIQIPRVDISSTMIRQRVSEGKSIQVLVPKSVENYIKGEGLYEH
# Mitochondrial peptide methionine sulfoxide reductase, sequence (P54149 whole entry, the tested form may be a part): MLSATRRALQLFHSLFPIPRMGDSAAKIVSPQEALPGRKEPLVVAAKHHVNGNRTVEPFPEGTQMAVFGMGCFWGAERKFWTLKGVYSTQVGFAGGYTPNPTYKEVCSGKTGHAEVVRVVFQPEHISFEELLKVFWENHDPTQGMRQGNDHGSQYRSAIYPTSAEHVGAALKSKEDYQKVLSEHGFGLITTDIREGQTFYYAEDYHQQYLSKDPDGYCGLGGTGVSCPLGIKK
# Lysine-specific demethylase 4C, sequence (Q9H3R0 whole entry): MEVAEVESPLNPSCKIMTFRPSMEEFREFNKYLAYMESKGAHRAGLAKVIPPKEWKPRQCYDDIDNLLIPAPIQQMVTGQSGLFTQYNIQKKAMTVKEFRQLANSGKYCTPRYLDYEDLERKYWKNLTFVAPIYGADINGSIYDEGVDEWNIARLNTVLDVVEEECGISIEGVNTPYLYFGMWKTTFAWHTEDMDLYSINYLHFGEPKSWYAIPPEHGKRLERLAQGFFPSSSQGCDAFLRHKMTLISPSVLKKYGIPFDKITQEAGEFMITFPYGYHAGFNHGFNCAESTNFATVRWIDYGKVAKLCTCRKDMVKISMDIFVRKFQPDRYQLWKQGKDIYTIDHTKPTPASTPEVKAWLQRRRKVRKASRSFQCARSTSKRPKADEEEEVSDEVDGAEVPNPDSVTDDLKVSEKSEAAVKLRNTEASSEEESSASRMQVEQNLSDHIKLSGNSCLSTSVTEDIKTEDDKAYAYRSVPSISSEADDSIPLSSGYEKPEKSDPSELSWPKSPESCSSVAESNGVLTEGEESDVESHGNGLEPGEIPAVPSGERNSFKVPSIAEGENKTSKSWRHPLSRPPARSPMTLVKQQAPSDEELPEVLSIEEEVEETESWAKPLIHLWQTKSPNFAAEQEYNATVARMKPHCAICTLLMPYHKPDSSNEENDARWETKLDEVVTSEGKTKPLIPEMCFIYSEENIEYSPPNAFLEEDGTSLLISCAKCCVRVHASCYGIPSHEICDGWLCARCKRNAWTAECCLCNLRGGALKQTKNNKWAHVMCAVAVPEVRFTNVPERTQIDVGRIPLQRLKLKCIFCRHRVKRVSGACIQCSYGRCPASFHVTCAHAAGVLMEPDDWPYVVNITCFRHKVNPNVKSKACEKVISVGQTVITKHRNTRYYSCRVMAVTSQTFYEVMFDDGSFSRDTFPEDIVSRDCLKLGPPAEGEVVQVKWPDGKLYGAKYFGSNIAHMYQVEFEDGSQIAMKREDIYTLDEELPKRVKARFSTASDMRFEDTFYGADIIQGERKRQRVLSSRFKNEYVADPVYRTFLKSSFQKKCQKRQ
# Exodeoxyribonuclease V, sequence (P04993 whole entry): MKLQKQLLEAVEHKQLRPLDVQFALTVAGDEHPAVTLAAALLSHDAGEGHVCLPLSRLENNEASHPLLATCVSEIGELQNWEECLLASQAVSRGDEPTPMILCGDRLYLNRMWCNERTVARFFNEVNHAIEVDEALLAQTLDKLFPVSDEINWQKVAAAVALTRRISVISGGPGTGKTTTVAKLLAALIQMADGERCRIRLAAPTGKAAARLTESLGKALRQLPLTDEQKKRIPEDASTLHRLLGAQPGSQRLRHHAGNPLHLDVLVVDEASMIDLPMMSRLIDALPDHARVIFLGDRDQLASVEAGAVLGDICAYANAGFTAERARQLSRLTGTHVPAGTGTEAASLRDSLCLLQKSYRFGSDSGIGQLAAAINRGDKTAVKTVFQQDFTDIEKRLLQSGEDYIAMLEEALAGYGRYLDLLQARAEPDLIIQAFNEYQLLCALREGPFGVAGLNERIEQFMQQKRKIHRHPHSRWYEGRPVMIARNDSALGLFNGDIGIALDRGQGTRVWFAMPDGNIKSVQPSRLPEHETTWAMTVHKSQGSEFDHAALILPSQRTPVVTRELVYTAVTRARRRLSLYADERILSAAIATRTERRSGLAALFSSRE
# Exodeoxyribonuclease V, sequence (P07648 whole entry): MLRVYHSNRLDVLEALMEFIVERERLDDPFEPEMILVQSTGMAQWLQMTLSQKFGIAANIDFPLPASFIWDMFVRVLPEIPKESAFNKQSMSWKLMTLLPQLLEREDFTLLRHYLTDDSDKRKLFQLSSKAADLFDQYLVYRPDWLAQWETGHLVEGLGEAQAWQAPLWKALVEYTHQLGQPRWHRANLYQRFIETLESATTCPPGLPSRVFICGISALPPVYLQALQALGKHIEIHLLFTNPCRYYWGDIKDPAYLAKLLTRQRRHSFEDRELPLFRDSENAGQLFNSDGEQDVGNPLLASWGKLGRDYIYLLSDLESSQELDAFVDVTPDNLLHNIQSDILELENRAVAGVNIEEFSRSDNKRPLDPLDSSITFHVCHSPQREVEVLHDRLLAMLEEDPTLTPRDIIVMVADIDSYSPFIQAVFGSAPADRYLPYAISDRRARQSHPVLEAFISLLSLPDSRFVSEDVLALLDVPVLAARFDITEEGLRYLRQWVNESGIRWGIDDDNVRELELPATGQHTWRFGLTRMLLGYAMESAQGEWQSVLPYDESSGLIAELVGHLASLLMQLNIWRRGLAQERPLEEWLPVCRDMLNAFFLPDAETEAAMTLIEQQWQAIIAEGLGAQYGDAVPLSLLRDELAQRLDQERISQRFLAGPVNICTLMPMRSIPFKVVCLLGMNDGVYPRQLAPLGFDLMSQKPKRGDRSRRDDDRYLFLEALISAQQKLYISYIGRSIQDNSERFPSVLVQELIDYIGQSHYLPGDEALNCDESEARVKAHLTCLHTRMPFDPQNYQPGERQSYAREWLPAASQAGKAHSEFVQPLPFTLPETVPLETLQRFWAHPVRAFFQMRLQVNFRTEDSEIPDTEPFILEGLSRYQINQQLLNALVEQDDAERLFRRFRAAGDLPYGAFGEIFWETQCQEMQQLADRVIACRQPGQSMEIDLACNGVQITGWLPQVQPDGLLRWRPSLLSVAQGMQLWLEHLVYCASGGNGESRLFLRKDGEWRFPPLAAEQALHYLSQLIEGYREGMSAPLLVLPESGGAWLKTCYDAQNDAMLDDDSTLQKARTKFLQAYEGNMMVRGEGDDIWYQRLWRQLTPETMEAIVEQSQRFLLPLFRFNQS
# Exodeoxyribonuclease V, sequence (P08394 whole entry): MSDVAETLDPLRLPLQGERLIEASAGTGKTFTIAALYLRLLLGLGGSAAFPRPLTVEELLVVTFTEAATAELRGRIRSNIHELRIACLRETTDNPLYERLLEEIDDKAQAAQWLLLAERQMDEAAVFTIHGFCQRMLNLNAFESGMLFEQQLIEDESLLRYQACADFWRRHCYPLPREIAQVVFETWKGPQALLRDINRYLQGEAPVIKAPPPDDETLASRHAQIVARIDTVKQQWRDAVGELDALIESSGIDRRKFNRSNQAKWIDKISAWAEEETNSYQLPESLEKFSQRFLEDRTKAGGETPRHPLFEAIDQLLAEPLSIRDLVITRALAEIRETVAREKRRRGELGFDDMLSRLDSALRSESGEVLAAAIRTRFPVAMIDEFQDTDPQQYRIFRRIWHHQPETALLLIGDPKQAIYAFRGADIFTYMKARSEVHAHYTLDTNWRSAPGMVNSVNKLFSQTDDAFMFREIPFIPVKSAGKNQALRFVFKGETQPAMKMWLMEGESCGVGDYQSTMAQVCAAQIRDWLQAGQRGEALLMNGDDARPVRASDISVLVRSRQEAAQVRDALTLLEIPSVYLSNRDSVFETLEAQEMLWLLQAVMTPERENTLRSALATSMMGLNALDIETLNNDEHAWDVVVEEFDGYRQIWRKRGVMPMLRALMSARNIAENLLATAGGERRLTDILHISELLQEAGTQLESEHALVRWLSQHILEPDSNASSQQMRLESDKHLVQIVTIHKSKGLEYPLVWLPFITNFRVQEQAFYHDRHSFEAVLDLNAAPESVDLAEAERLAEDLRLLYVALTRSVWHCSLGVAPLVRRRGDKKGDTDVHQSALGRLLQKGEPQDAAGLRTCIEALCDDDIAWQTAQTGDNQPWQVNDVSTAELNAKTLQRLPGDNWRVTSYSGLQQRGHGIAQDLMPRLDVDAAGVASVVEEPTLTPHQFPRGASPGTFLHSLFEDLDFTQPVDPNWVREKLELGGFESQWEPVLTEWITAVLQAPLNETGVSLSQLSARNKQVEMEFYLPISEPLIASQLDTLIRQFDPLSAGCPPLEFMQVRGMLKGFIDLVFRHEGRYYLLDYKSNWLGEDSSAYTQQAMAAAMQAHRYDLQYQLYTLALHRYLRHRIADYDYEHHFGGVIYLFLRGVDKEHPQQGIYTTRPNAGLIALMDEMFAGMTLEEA
# G-protein coupled receptor 55, sequence (Q9Y2T6 whole entry): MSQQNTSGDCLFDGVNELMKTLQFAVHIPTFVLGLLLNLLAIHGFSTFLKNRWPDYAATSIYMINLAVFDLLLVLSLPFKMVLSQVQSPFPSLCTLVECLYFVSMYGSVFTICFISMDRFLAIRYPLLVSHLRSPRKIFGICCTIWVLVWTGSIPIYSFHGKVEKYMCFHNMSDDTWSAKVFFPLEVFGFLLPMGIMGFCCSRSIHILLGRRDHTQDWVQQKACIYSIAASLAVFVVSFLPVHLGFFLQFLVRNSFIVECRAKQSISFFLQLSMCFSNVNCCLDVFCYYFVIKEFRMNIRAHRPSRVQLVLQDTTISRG
smiles,measurement,setting,value
O=C(COC(=O)c1ccc([N+](=O)[O-])s1)c1ccc[nH]1,IC50,[1],> 119 µM (inactive)
same,IC50,[2],10.2 µM (active)
same,IC50,[3],18.4 µM (active)
same,IC50,[4],6.52 µM (active)
same,IC50,[5],5.37 µM (active)
same,IC50,[6],104 µM (inactive)
same,EC50,[7],15.8 µM (inactive)
CCC(Sc1nc2ccsc2c(=O)n1Cc1ccc(C(=O)O)cc1)C(=O)Nc1ccc(C)c(Cl)c1 (stereo unspecified),IC50,[8],47.7 µM (active)
same,IC50,[9],14.9 µM (inactive)
same,IC50,[10],6.61 µM (active)
same,IC50,[11],38.6 µM (active)
COc1cccc(/C=N/Nc2nc3ccccc3[nH]2)c1O,EC50,[12],> 350 µM (not active)
same,EC50,[13],26.6 µM (active)
same,AC50,[14],8.63 µM (active)
same,AC50,[15],3.34 µM (active)
same,AC50,[16],2.22 µM (active)
